Values of other authors, collected in publication PMC3775475 (European journal of medicinal chemistry, 2013).

Target: kappa-OR (UniProt P41145)
Sequence (P41145 whole entry): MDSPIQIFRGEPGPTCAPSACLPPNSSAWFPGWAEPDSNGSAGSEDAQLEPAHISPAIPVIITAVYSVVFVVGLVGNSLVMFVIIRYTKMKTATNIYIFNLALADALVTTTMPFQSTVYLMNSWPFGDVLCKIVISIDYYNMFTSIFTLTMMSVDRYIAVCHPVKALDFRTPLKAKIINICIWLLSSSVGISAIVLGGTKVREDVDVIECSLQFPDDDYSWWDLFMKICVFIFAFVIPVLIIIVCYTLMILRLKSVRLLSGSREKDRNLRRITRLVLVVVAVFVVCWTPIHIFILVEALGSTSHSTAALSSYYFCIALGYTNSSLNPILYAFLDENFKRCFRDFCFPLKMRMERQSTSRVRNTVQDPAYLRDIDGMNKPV

Compound | Ki [nM]
ff(D-nle)r-NH2 (R1 f, R2 f, R3 nle, R4 r) [compound 1] | 1.2
CC[C@@H](C)[C@@H](NC(=O)[C@@H](Cc1ccccc1)NC(=O)[C@H](N)Cc1ccccc1)C(=O)N[C@H](CCCNC(=N)N)C(N)=O [compound 4] | 2.4
